Test results from the supplement of paper PMC12463676, “Small-molecule dissolution of stress granules by redox modulation benefits ALS models” (Nature Chemical Biology, 2025).

Assays:
lipoamide = compound: NC(=O)CCCCC1CCSS1 [lipoamide]; assay: thermal stability z-score vs DMSO; higher = more thermally stabilized by treatment; conditions: HeLa, lipoamide concentration 100 µM
Experimental: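 Cellular thermal proteome profiling in HeLa cells. Cells were treated with 100 µM lipoamide for 1 h, with or without 1 mM arsenate for a further 1 h, then heated to ten temperatures (37-66.3 °C), and soluble protein was quantified by TMT mass spectrometry relative to 0.1% DMSO controls. The thermal stability score (sum of log2 fold changes minus the abundance score) was transformed to a z-score; mean of n = 3 experiments.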

potassium arsenate = compound: O=[As]([O-])(O)O.[K+] [potassium arsenate]; assay: as above; conditions: HeLa; arsenate concentration 1 mM
Experimental: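 Cellular thermal proteome profiling in HeLa cells treated with 1 mM arsenate for 1 h (DMSO pretreatment), heated to ten temperatures (37-66.3 °C). Soluble protein was quantified by TMT mass spectrometry relative to DMSO controls; the thermal stability score was transformed to a z-score; mean of n = 3 experiments.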

[1] = arsenate co-treatment: 1 mM arsenate 1 h
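Further: each temperature applied for 3 min, abundance score taken as mean log2 fold change at the two lowest temperatures, z-score obtained by mean subtraction and division by SD.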

Sequence of UniProt Q3LXA3 (Q3LXA3 whole entry): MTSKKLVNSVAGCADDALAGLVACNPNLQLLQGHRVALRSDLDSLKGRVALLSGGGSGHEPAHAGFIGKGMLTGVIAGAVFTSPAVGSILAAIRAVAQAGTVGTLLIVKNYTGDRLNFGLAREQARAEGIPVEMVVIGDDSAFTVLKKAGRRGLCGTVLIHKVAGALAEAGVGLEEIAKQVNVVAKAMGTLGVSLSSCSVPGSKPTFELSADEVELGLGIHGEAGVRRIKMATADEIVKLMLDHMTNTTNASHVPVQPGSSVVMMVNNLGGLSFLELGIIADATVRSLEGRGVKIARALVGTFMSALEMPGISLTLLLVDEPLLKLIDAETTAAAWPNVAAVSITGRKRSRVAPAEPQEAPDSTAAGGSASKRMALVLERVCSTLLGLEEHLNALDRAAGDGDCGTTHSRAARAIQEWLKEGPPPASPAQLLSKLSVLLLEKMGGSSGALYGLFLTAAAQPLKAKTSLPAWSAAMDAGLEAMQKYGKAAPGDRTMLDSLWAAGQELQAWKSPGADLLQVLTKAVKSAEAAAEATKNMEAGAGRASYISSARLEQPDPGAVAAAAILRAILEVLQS
Sequence of UniProt Q9NP74 (Q9NP74 whole entry): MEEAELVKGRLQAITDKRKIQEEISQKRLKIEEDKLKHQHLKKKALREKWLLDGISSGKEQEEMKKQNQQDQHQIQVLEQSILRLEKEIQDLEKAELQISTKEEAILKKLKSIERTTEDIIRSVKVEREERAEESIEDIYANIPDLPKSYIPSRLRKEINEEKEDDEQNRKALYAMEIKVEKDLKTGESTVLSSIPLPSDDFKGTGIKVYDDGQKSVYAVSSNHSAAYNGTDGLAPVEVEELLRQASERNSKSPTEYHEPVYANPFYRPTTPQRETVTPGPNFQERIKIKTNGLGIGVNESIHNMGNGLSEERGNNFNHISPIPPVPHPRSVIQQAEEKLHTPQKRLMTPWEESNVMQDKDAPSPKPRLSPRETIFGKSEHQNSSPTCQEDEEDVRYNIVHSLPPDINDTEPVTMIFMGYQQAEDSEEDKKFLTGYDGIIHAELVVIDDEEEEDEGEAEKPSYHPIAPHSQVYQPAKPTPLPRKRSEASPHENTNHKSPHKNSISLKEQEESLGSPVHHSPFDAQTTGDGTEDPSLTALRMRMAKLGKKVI
Sequence of UniProt Q9BRF8 (Q9BRF8 whole entry): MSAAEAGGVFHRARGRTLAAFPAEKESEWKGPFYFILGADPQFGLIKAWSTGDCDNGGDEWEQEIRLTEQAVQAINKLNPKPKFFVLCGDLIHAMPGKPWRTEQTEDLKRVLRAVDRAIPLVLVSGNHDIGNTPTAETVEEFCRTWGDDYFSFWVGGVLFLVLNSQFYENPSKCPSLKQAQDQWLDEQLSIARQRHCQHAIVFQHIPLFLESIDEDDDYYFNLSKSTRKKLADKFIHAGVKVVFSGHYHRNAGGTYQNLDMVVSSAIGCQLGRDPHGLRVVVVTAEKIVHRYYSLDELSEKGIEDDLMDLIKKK
Sequence of UniProt O75071 (O75071 whole entry): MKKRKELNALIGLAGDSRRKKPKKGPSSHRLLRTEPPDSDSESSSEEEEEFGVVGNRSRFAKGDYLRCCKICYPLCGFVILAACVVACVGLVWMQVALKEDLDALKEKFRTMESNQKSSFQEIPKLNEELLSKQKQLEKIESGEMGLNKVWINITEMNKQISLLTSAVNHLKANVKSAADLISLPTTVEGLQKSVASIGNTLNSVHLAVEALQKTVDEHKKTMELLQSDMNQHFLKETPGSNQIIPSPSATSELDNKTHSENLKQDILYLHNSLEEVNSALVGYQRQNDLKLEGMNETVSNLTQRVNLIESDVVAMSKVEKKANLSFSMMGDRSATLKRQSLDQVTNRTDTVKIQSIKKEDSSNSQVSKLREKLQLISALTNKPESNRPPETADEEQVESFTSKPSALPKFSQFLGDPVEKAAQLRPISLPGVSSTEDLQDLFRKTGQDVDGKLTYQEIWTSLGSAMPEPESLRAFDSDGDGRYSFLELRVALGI
Sequence of UniProt P31689 (P31689 whole entry): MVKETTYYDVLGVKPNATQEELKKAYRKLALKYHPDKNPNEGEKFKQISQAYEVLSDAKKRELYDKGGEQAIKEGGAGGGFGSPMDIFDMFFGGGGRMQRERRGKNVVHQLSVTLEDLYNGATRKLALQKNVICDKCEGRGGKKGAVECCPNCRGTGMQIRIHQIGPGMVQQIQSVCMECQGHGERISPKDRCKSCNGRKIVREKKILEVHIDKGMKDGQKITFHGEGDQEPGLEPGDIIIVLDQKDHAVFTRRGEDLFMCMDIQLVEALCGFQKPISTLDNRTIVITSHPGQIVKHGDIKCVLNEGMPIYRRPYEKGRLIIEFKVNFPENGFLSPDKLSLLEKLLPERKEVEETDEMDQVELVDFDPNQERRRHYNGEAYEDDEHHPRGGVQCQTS
Sequence of UniProt O95425 (O95425 whole entry): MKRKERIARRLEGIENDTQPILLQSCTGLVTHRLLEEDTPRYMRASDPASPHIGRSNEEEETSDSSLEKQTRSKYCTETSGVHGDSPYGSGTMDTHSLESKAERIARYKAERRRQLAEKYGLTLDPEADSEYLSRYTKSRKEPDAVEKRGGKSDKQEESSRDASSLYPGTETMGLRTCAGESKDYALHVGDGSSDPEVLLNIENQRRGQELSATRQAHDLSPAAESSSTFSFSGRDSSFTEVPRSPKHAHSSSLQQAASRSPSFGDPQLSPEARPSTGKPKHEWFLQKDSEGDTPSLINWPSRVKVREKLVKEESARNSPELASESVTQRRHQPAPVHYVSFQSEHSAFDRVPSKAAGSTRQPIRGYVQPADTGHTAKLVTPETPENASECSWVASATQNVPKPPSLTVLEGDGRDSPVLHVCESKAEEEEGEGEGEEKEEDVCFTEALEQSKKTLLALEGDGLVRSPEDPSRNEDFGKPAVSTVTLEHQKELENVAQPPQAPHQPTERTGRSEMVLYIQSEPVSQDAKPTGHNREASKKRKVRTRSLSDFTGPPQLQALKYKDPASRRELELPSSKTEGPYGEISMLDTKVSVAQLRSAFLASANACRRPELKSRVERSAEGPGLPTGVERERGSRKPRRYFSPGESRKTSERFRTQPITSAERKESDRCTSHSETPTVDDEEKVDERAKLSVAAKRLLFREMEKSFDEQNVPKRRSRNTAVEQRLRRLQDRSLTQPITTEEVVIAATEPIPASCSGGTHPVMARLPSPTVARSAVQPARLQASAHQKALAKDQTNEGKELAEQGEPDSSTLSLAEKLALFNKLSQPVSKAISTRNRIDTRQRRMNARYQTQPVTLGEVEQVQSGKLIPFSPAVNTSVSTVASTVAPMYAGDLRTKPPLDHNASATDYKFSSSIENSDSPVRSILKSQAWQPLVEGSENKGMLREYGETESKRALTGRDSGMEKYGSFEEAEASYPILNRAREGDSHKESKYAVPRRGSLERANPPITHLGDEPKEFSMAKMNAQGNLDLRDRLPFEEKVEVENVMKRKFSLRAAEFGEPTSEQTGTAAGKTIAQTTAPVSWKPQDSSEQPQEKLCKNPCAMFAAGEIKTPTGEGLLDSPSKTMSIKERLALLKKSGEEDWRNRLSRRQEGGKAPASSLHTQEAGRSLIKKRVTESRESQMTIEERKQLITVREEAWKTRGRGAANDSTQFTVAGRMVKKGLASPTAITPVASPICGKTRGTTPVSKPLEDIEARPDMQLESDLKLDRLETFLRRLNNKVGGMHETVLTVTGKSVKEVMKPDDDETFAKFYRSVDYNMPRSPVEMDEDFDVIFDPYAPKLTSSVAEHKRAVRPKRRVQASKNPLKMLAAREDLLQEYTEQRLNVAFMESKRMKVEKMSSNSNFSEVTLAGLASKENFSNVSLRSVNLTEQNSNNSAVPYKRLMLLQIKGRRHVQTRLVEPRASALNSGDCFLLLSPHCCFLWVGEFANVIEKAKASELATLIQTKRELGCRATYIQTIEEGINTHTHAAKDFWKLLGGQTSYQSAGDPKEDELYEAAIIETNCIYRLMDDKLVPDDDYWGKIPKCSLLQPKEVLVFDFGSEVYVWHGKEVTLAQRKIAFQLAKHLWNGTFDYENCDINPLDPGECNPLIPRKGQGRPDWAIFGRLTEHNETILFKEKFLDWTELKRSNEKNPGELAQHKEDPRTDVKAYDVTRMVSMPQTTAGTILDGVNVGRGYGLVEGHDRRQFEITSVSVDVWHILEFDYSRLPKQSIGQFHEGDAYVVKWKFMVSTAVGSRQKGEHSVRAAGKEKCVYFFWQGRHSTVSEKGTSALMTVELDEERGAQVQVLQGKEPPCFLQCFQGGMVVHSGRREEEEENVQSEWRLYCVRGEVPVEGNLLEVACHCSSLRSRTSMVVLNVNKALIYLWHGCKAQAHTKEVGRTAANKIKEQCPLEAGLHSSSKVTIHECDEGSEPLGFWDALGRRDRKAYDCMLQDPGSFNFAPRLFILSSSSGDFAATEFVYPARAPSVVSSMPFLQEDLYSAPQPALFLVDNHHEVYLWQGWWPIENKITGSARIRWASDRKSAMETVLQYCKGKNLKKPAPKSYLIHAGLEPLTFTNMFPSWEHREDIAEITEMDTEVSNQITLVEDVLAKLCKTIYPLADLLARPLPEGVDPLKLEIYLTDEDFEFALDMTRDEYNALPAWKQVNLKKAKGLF
Sequence of UniProt P07919 (P07919 whole entry): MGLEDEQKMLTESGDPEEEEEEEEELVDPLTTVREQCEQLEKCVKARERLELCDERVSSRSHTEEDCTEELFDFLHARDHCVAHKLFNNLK
Sequence of UniProt Q8N0T1 (Q8N0T1 whole entry): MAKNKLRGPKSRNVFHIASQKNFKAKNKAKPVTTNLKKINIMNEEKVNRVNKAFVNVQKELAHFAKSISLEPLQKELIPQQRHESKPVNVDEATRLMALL
Sequence of UniProt P49914 (P49914 whole entry): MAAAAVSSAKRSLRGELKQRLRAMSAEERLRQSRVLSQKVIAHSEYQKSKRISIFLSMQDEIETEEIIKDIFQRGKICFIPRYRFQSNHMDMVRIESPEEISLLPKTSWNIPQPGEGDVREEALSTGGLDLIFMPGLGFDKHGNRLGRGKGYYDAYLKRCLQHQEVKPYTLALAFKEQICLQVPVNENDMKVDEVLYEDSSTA

| Target | thermal stability z-score (lipoamide; [1]) | thermal stability z-score (lipoamide; arsenate co-treatment: none) | thermal stability z-score (potassium arsenate) |
| --- | --- | --- | --- |
| MSH3 (UniProt P20585) | -0.0133 | 0.43 | -0.95 |
| WDR48 (UniProt Q8TAF3) | 0.197 | 0.3 | 1.13 |
| RPP40 (UniProt O75818) | 0.705 | -0.123 | -1.15 |
| SIRT6 (UniProt Q8N6T7) | -0.0481 | -0.176 | -0.21 |
| ACTR3 (UniProt P61158) | -0.149 | 0.128 | -0.483 |
| FECH (UniProt P22830) | 0.24 | 0.0849 | -0.203 |
| LCLAT1 (UniProt Q6UWP7) | 1.1 | 0.0592 | -2.38 |
| HSPB1 (UniProt P04792) | -1.04 | -0.459 | 0.246 |
| TKFC (UniProt Q3LXA3) | 0.239 | 0.23 | -0.753 |
| TXNDC12 (UniProt O95881) | -1.11 | -1.37 | 0.744 |
| EFCAB14 (UniProt O75071) | -0.971 | -1.74 | 0.262 |
| JADE3 (UniProt Q92613) | -0.12 | 0.143 | -0.474 |
| RABGAP1L | -0.279 | -0.536 | 0.339 |
| AHNAK2 (UniProt Q8IVF2) | 0.924 | 0.899 | 1.42 |
| METAP1 (UniProt P53582) | -0.0942 | -0.673 | 0.894 |
| FAM91A1 (UniProt Q658Y4) | -0.0432 | -0.00182 | -0.0432 |
| SVIL (UniProt O95425) | 0.00545 | 0.00211 | 0.279 |
| CDIPT (UniProt O14735) | 1.05 | 0.638 | -0.187 |
| HPCAL1 (UniProt P37235) | 1.09 | 1.31 | 0.342 |
| FBXO9 (UniProt Q9UK97) | -0.495 | -1.62 | -0.61 |
| WDFY1 (UniProt Q8IWB7) | -0.112 | -0.423 | -1.85 |
| RABGEF1 (UniProt Q9UJ41) | -0.0343 | -0.0874 | -0.113 |
| RPS9 (UniProt P46781) | 0.28 | 0.125 | -1.03 |
| RPS3A (UniProt P61247) | 0.23 | 0.114 | -0.818 |
| ZFAND5 (UniProt O76080) | 1.13 | 0.84 | 0.118 |
| TANGO6 (UniProt Q9C0B7) | -0.908 | -0.59 | 0.475 |
| SNX8 (UniProt Q9Y5X2) | 1.1 | -0.149 | -0.369 |
| C8ORF59 (UniProt Q8N0T1) | 0.481 | 0.508 | -0.38 |

| Target | thermal stability z-score (lipoamide; [1]) | thermal stability z-score (lipoamide; arsenate co-treatment: none) | thermal stability z-score (potassium arsenate) |
| --- | --- | --- | --- |
| UPF3B (UniProt Q9BZI7) | -0.0795 | 0.00475 | 0.667 |
| MTHFS (UniProt P49914) | -0.574 | 0.036 | -0.488 |
| VPS33B (UniProt Q9H267) | -0.333 | 0.0129 | 0.205 |
| PALMD (UniProt Q9NP74) | 1.1 | 0.987 | 1.81 |
| SGPP1 (UniProt Q9BX95) | 0.332 | -0.299 | -0.0282 |
| CPNE3 (UniProt O75131) | 1.73 | 2.22 | 0.283 |
| OSBPL2 (UniProt Q9H1P3) | -0.0428 | 0.0817 | -0.0657 |
| POLR2E (UniProt P19388) | 0.281 | 0.459 | -1.34 |
| SNX17 (UniProt Q15036) | -0.581 | 0.118 | -0.423 |
| WWC1 (UniProt Q8IX03) | -0.0147 | -0.0692 | -0.0726 |
| CEP85 (UniProt Q6P2H3) | -0.00805 | 0.112 | -0.118 |
| URGCP (UniProt Q8TCY9) | 0.532 | 0.322 | 1.12 |
| FBXL16 (UniProt Q8N461) | -0.137 | 0.0698 | -0.0763 |
| CDKN2AIP (UniProt Q9NXV6) | 0.446 | 0.454 | -0.347 |
| NUP98 (UniProt P52948) | -0.415 | -0.292 | 0.214 |
| SRP9 (UniProt P49458) | 0.432 | 0.761 | -0.335 |
| SLC9A6 (UniProt Q92581) | -0.145 | -0.0692 | -0.165 |
| DDX56 (UniProt Q9NY93) | -0.847 | -0.217 | 0.917 |
| TRMT13 (UniProt Q9NUP7) | -0.376 | -1.34 | 0.263 |
| CPPED1 (UniProt Q9BRF8) | -0.0195 | 0.348 | 0.792 |
| UQCRH (UniProt P07919) | 1.35 | 1.45 | 0.58 |
| WIPI1 (UniProt Q5MNZ9) | -0.175 | -0.814 | 0.18 |
| RPL26 (UniProt P61254) | 1.18 | 0.347 | -0.347 |
| NUP37 (UniProt Q8NFH4) | 0.338 | -0.0489 | 0.82 |
| E2F3 (UniProt O00716) | -0.295 | -0.154 | -0.342 |
| DNAJA1 (UniProt P31689) | -1.05 | -0.818 | -0.452 |
| DHX30 (UniProt Q7L2E3) | -0.306 | 0.192 | -0.391 |
